Results as given in patent publication US20100069393A1, “METHOD OF TREATMENT AND AGENTS USEFUL FOR SAME” (PRANA BIOTECHNOLOGY LIMITED, priority 2006, published 2010).

Assay: Neurotoxicity assay: MTS viability of primary cortical neuronal cultures
Type: cell-based, mouse
Details: BL6Jx129sv, mouse, primary cortical neuronal cultures, Neuronal cells, read-out: Cytotoxicity (% viable at 1 and 10 uM); for viability at 4 days, 1 uM: test compound 1 uM; for viability at 4 days, 10 uM: test compound 10 uM
Procedure: Media was then replaced with Neurobasal media (Invitrogen Life Technologies) and B27 supplements (Invitrogen Life Technologies). Cultures were maintained at 37° C. in 5% CO2. Prior to experimentation, the culture medium was replaced with Neurobasal media and B27 minus antioxidants (Invitrogen Life Technologies).
Cell viability is determined using the MTS assay. Culture medium is replaced with fresh neurobasal medium plus B27 supplements minus antioxidants. 1/10th volume MTS solution (Cell Titre 96 Aqueous One, Promega Corporation) and incubated at 37° C., 2 hrs. 200 microlitre aliquots are measured with a spectrophotometer at 560 nm.
Neuronal cortical cells were cultured for five days as per Assay 2 in NB media and B27 supplement.
On day six the test compounds were added to the neuronal cell cultures in NB media and B27 supplement minus antioxidants.
Test compounds were dissolved in 100% DMSO to a concentration of 2.5 mM (10 mM if excess compound was weighed out per vial—then diluted to 2.5 mM). […] Test compounds were not added directly to cells, instead they were added to a 48 well ‘Drug Plate’ as comprised below:
The Drug Plate was incubated at 37° C. for 15 mins. 200 μl of each well was added in triplicate to the corresponding cell plate. The cell plate was incubated at 37 C, for 4 days.
On completion of the assay, 1/10 volume MTS was added per well of plate (i.e. 25 μl/250 μl). The plates were incubated at 37 C for 2 hrs, and then absorbance was read at 560 nm.

Structure (SMILES)	viability at 4 days, 1 uM [%]	viability at 4 days, 10 uM [%]
Nc1ccc(O)c2ncccc12	108	71
Oc1c(Cl)cc(Cl)c2cccnc12	98	75
Oc1c(I)cc(I)c2cccnc12	91	95
Oc1c(Br)cc(Br)c2cccnc12	100	94
Oc1ccc(Cl)c2cccnc12	94	85
Cc1ccc2cccc(O)c2n1	98	58
Nc1ccc2cccc(O)c2n1	95	48
N#Cc1ccc2cccc(O)c2n1	94	97
Cc1cc(C)c2cccnc2c1O	86	85
Oc1ccc(/C=C/c2ccc3cccc(O)c3n2)cc1	100	75
Oc1ccc(CCc2ccc3cccc(O)c3n2)cc1	89	86
Oc1c(Br)cc(-c2ccccc2)c2cccnc12	100	97
Oc1c(-c2ccccc2)cc(Cl)c2cccnc12	93	72
Oc1c(-c2ccccc2)cc(-c2ccccc2)c2cccnc12	97	26
COc1cccc(-c2cc(Cl)c3cccnc3c2O)c1	83	71
O=[N+]([O-])c1cccc(-c2cc(Cl)c3cccnc3c2O)c1	92	78
Oc1c(-c2ccc(F)cc2)cc(Cl)c2cccnc12	103	75
Oc1c(-c2cc(F)cc(F)c2)cc(Cl)c2cccnc12	90	66
COc1ccc(-c2cc(Cl)c3cccnc3c2O)cc1	97	31
Oc1c(-c2ccccc2F)cc(Cl)c2cccnc12	96	54
O=Cc1ccccc1-c1cc(Cl)c2cccnc2c1O	109	99
Oc1c(-c2cccc(F)c2)cc(Cl)c2cccnc12	98	71
CN(C)c1ccc(-c2cc(Cl)c3cccnc3c2O)cc1	94	85
Cc1ccccc1-c1cc(-c2ccccc2C)c2cccnc2c1O	93	34
Oc1c(Br)cc(-c2cc(F)cc(F)c2)c2cccnc12	95	95
Cc1ccccc1-c1cc(Cl)c2cccnc2c1O	100	100
Cc1cccc(-c2cc(Cl)c3cccnc3c2O)c1	98	73

Structure (SMILES)	viability at 4 days, 1 uM [%]	viability at 4 days, 10 uM [%]
O=C(NCCc1cnc[nH]1)c1cc(O)c2cccc(O)c2n1	100	100
O=C(NCc1ccccn1)c1cc(O)c2cccc(O)c2n1	100	100
O=C(O)CNC(=O)c1ccc2cccc(O)c2n1	100	89
NCCNC(=O)c1ccc2cccc(O)c2n1	106	96
N=C(N)NCc1ccc2cccc(O)c2n1	100	89
CC(=O)NCc1ccc2cccc(O)c2n1	100	91
NCc1ccc2cccc(O)c2n1	101	97
O/N=C/c1ccc2cccc(O)c2n1	100	95
Oc1c(-c2cc3ccccc3s2)cc(Cl)c2cccnc12	87	32
Oc1c(-c2cc(Cl)c3cccnc3c2O)cc(Cl)c2cccnc12	97	84
Oc1c(-c2ccsc2)cc(Cl)c2cccnc12	93	31
Oc1c(-c2ccc(F)cc2F)cc(Cl)c2cccnc12	90	42
Nc1ccccc1NC(=O)c1cc(O)c2cccc(O)c2n1	98	82
O=C(CNC(=O)c1cc(O)c2cccc(O)c2n1)NCCc1c[nH]cn1	98	89
O=C(CNC(=O)c1cc(O)c2cccc(O)c2n1)NCc1ccccn1	93	93
Oc1cccc2ccc(CNCCc3c[nH]cn3)nc12	101	43
CN(CCc1ccccn1)Cc1ccc2cccc(O)c2n1	97	57
Oc1cccc2ccc(CNCc3ccccn3)nc12	96	67
O=C(O)CNC(=O)c1cc(O)c2cccc(O)c2n1	98	94
Cc1nccn1-c1ccc2cccc(O)c2n1	104	96
Oc1cccc2ccc(-n3cncn3)nc12	102	97
Oc1cccc2ccc(CN(CCc3c[nH]cn3)Cc3nccs3)nc12	82	34
Oc1cccc2ccc(CN(Cc3ccccn3)Cc3nccs3)nc12	97	38
CSc1ccccc1-c1ccc2cccc(O)c2n1	114	112
Oc1cccc2ccc(-c3ccccn3)nc12	107	75
Cc1cccc(-c2ccc3cccc(O)c3n2)n1	91	58
Oc1cccc2ccc(CN(CCc3c[nH]cn3)Cc3c[nH]cn3)nc12	97	26

Structure (SMILES)	viability at 4 days, 1 uM [%]	viability at 4 days, 10 uM [%]
Oc1cccc2ccc(CN(CCc3c[nH]cn3)Cc3ccccn3)nc12	98	27
Oc1cccc2ccc(CN(Cc3ccccn3)Cc3ccccn3)nc12	87	23
Oc1cccc2ccc(CN(Cc3ccccn3)Cc3c[nH]cn3)nc12	90	70
O=C(c1ccc2cccc(O)c2n1)N(Cc1ccccn1)Cc1ccccn1	81	79
CC(=O)Nc1ccc2cccc(O)c2n1	93	89
O/N=C/c1ccc2c(Cl)cc(Cl)c(O)c2n1	91	70
CO/N=C/c1ccc2c(Cl)cc(Cl)c(O)c2n1	77	54
NC(=O)c1ccc2c(Cl)cc(Cl)c(O)c2n1	74	86
O=C(O)c1ccc2c(Cl)cc(Cl)c(O)c2n1	88	80
O=c1[nH]cnc2c(O)cccc12	101	89
Oc1c(Cl)cc(Cl)c2ccc(-c3ccccn3)nc12	55	31
CN(c1ccccn1)c1ccc2c(Cl)cc(Cl)c(O)c2n1	100	59
Oc1c(Cl)cc(-c2cccnc2)c2cccnc12	101	84
Oc1c(Cl)cc(Cl)c2cc(Cl)cnc12	82	55
Nc1cnc2c(O)c(Cl)cc(Cl)c2c1	94	10
Cc1cnc2c(Cl)cc(Cl)c(O)c2n1	100	93
Cc1cnc2c(O)c(Cl)cc(Cl)c2n1	94	87
O=c1c2c(Cl)cc(Cl)c(O)c2ncn1CC1CCNCC1	97	96
CCCn1c(CNC)nc2c(O)c(Cl)cc(Cl)c2c1=O	110	102
COc1c(Cl)cc(Cl)c2c(=O)n(N)cnc12	99	93
CNCc1ccc2c(Cl)cc(Cl)c(O)c2n1	86	78
NCc1ccc2c(Cl)cc(Cl)c(O)c2n1	100	80
CCN(CC)Cc1ccc2c(Cl)cc(Cl)c(O)c2n1	74	70
Oc1cccc2c(=S)n(Cc3ccccn3)cnc12	97	90
CC(Br)CCn1cnc2c(O)c(Cl)cc(Cl)c2c1=O (stereo not shown)	101	73
CCOC(=O)c1cnc2c(O)c(CC)ncc2c1	103	92
